From patent US20240199598A1 (MITOIMMUNE THERAPEUTICS INC., priority 2021, published 2024)
Read-outs that look alike come from different tables or passages of the source.

Key:
[1] = Persistence of Crystalline form VIII under nitrogen and on exposure to air (XRPD); type: physicochemical
Description: A novel crystalline form was found by heating Crystalline form IV to remove water and maintaining the same for 10 minutes and named Crystalline form VIII.

[2] = Physicochemical stability test of free form and 5 salts (60° C., 40° C./75% humidity, light); details: for Final purity: HPLC; for Chemical stability (purity change %/1 w), 40° C./75% RH / Chemical stability (purity change %/1 w), 60° C. / Chemical stability (purity change %/1 w), Light stability: summary Table 9
Description: In the case of a light stability test, the vial was stored in a light stability test chamber while being not closed with a lid, and exposed to a total illuminance of 1.2 million lux-hr. A vial light-shielded with aluminum foil was used as an experimental control (Dark control). For stability assessment, state assessment by visual observation, purity assessment using HPLC, and crystalline form assessment using XRPD were conducted, and results thereof are shown in Table 7. […] In FIGS. 19 to 30, “Light” represents light irradiation condition results.

[3] = Oral administration pharmacokinetic test using mice; details: for AUClast / Cmax / Tmax / t½: 10 mg/kg; for Pharmacokinetic test, t½: summary Table 9
[4] = Solubility of compound of Chemical Formula 1 in various solvents; type: physicochemical
From the text: Very low solubility in various solvents adversely affects pharmaceutical development that requires the production of a finished product in a completely dissolved state.

pKa, UV-metric method = type: physicochemical
From the text: As shown in the following Table 2, each combination of counter ions and solvents were given a batch number.

[5] = Dark control (light-shielded vial)
[6] = 1.2 million lux-hr, listed as Free form of compound 1
[7] = 40° C./75% RH, 1 w, listed as Free form of compound 1
[8] = 60° C., 1 w, listed as Free form of compound 1
[9] = Dark control, listed as Free form of compound 1

In the case of O=S1(=O)CCN(Cc2cc(NC3CCOCC3)c3[nH]c(-c4ccccc4)cc3c2)CC1 [Crystalline form VIII], the “Time until the crystalline form disappeared” value ([1]; exposed to air, changes to Crystalline form IV) is reported as at most 1 h and the “Persistence of the crystalline form (in words)” value ([1]; nitrogen filling protection after cooling to 25° C.) is reported as “maintained upon nitrogen filling protection after cooling to 25 °C”.

In the case of Cl.O=S1(=O)CCN(Cc2cc(NC3CCOCC3)c3[nH]c(-c4ccccc4)cc3c2)CC1 [Hydrochloride], the Assay ([2]; 1.2 million lux-hr) is reported as 108.65%, the Purity change ([2]; 1.2 million lux-hr) is reported as 0% and the XRPD patterns ([2]; 1.2 million lux-hr) is reported as “Pattern 1-I”. The Final purity ([2]; 1.2 million lux-hr) was 99.95%, the Appearance ([2]; 40° C./75% RH, 1 w) was “White powder” and the Assay ([2]; 40° C./75% RH, 1 w) was 109.18%. The Purity change ([2]; 40° C./75% RH, 1 w) was −0.55%, the XRPD patterns ([2]; 40° C./75% RH, 1 w) was “Pattern 1-I” and the Final purity ([2]; 40° C./75% RH, 1 w) was 99.40%. For the same compound, the “Chemical stability (purity change %/1 w), 40° C./75% RH” value ([2]; 40° C./75% RH, 1 w) was −0.05%, the Appearance ([2]; 60° C., 1 w) was “White powder” and the Assay ([2]; 60° C., 1 w) was 110.29%. The Purity change ([2]; 60° C., 1 w) was “+0.05%”, the XRPD patterns ([2]; 60° C., 1 w) was “Pattern 1-I” and the Final purity ([2]; 60° C., 1 w) was 100.0%. For the same compound, the “Chemical stability (purity change %/1 w), 60° C.” value ([2]; 60° C., 1 w) was 0.18%, the “Sensitivity to heat, humidity and light conditions (in words)” value ([2]; 60° C., 40° C./75% humidity, 1.2 million lux-hr) was “sensitive under a humidity condition” and the Assay ([2]; Dark control) was 108.99%. For the same compound, the Purity change ([2]; Dark control) was “+0.05%”, the XRPD patterns ([2]; Dark control) was “Pattern 1-I” and the Appearance [2, 5] was “White powder”. For the same compound, the Final purity ([2]; Dark control) was 100.0%, the “Chemical stability (purity change %/1 w), Light stability” value [2] was 0% and the AUClast ([3]; mice, oral) was 12261.43 ng·h/mL. For the same compound, the Cmax ([3]; mice, oral) was 2381.1 ng/mL, the Tmax ([3]; mice, oral) was 2 h and the t½ ([3]; mice, oral) was 3.0 h. The “Pharmacokinetic test, t½” value ([3]; mice, oral) was 3 h.

In the case of O=S1(=O)CCN(Cc2cc(NC3CCOCC3)c3[nH]c(-c4ccccc4)cc3c2)CC1 [compound of Chemical Formula 1, 5-[(1,1-dioxido-4-thiomorpholinyl)methyl]-2-phenyl-N-(tetrahydro-2H-pyran-4-yl)-1H-indol-7-amine], the solubility ([4]; Heptane, 25° C.) is reported as “<LOQ”, the solubility ([4]; Heptane, 50° C.) is reported as “<LOQ” and the solubility ([4]; Water, 25° C., read-out: Solubility) is reported as 1 µg/mL. The solubility ([4]; Water, 50° C., read-out: Solubility) was 46 µg/mL, the solubility ([4]; aqueous with cosolvent or surfactant or cyclodextrin, Acetic acid-water (1:1), 25° C., read-out: Solubility) was 52800 µg/mL and the solubility ([4]; aqueous with cosolvent or surfactant or cyclodextrin, Acetic acid-water (1:1), 50° C., read-out: Solubility) was 75600 µg/mL. For the same compound, the solubility ([4]; aqueous with cosolvent or surfactant or cyclodextrin, Acetone-water (1:2), 25° C., read-out: Solubility) was 80 µg/mL, the solubility ([4]; aqueous with cosolvent or surfactant or cyclodextrin, Acetone-water (1:2), 50° C., read-out: Solubility) was 160 µg/mL and the solubility ([4]; aqueous with cosolvent or surfactant or cyclodextrin, MeOH/water = 1:1 (v/v), 25° C., read-out: Solubility) was 30 µg/mL. For the same compound, the solubility ([4]; aqueous with cosolvent or surfactant or cyclodextrin, MeOH/water = 1:1 (v/v), 50° C., read-out: Solubility) was 80 µg/mL, the solubility ([4]; organic solvent or mixture, 1-Butanol, 25° C., read-out: Solubility) was 650 µg/mL and the solubility ([4]; organic solvent or mixture, 1-Butanol, 50° C., read-out: Solubility) was 1000 µg/mL. For the same compound, the solubility ([4]; organic solvent or mixture, 2-Methyltetrahydrofuran (2-MeTHF), 25° C., read-out: Solubility) was 2780 µg/mL, the solubility ([4]; organic solvent or mixture, 2-Methyltetrahydrofuran (2-MeTHF), 50° C., read-out: Solubility) was 3410 µg/mL and the solubility ([4]; organic solvent or mixture, Acetone, 25° C., read-out: Solubility) was 5290 µg/mL. For the same compound, the solubility ([4]; organic solvent or mixture, Acetone, 50° C., read-out: Solubility) was 17500 µg/mL, the solubility ([4]; organic solvent or mixture, Acetonitrile (ACN), 25° C., read-out: Solubility) was 3090 µg/mL and the solubility ([4]; organic solvent or mixture, Acetonitrile (ACN), 50° C., read-out: Solubility) was 4040 µg/mL. The solubility ([4]; organic solvent or mixture, Chloroform (CHCl3), 25° C., read-out: Solubility) was 4700 µg/mL, the solubility ([4]; organic solvent or mixture, Chloroform (CHCl3), 50° C., read-out: Solubility) was 4620 µg/mL and the solubility ([4]; organic solvent or mixture, Dimethyl sulfoxide (DMSO), 25° C., read-out: Solubility) was 43400 µg/mL. It also gave a solubility ([4]; organic solvent or mixture, Dimethyl sulfoxide (DMSO), 50° C., read-out: Solubility) of 238000 µg/mL, a solubility ([4]; organic solvent or mixture, Ethanol (EtOH), 25° C., read-out: Solubility) of 1410 µg/mL and a solubility ([4]; organic solvent or mixture, Ethanol (EtOH), 50° C., read-out: Solubility) of 1080 µg/mL. It also gave a solubility ([4]; organic solvent or mixture, Ethyl acetate (EtOAc), 25° C., read-out: Solubility) of 1360 µg/mL, a solubility ([4]; organic solvent or mixture, Ethyl acetate (EtOAc), 50° C., read-out: Solubility) of 1860 µg/mL and a solubility ([4]; organic solvent or mixture, Isopropanol (IPA), 25° C., read-out: Solubility) of 320 µg/mL. The solubility ([4]; organic solvent or mixture, Isopropanol (IPA), 50° C., read-out: Solubility) was 540 µg/mL, the solubility ([4]; organic solvent or mixture, Isopropyl acetate (iPrOAc), 25° C., read-out: Solubility) was 710 µg/mL and the solubility ([4]; organic solvent or mixture, Isopropyl acetate (iPrOAc), 50° C., read-out: Solubility) was 910 µg/mL. It also gave a solubility ([4]; organic solvent or mixture, Methanol (MeOH), 25° C., read-out: Solubility) of 590 µg/mL, a solubility ([4]; organic solvent or mixture, Methanol (MeOH), 50° C., read-out: Solubility) of 1150 µg/mL and a solubility ([4]; organic solvent or mixture, Methyl ethyl ketone (MEK), 25° C., read-out: Solubility) of 6080 µg/mL. It also gave a solubility ([4]; organic solvent or mixture, Methyl ethyl ketone (MEK), 50° C., read-out: Solubility) of 8120 µg/mL, a solubility ([4]; organic solvent or mixture, Methyl isobutyl ketone (MIBK), 25° C., read-out: Solubility) of 2100 µg/mL and a solubility ([4]; organic solvent or mixture, Methyl isobutyl ketone (MIBK), 50° C., read-out: Solubility) of 2820 µg/mL. The solubility ([4]; organic solvent or mixture, Methyl tert-butyl ether (MTBE), 25° C., read-out: Solubility) was 60 µg/mL, the solubility ([4]; organic solvent or mixture, Methyl tert-butyl ether (MTBE), 50° C., read-out: Solubility) was 70 µg/mL and the solubility ([4]; organic solvent or mixture, N,N-dimethylformamide (DMF), 50° C., read-out: Solubility) was 333000 µg/mL. It also gave a solubility ([4]; organic solvent or mixture, N-methyl pyrrolidone (NMP), 25° C., read-out: Solubility) of 160000 µg/mL, a solubility ([4]; organic solvent or mixture, N-methyl pyrrolidone (NMP), 50° C., read-out: Solubility) of 192000 µg/mL and a solubility ([4]; organic solvent or mixture, Tetrahydrofuran (THF), 25° C., read-out: Solubility) of 17400 µg/mL. The solubility ([4]; organic solvent or mixture, Tetrahydrofuran (THF), 50° C., read-out: Solubility) was 16300 µg/mL, the solubility ([4]; organic solvent or mixture, Toluene, 25° C., read-out: Solubility) was 20 µg/mL and the solubility ([4]; organic solvent or mixture, Toluene, 50° C., read-out: Solubility) was 20 µg/mL. The pKa (pKa, UV-metric method) was 4.5, the Appearance ([2]; 1.2 million lux-hr (light stability), listed as Free form of compound 1) was “White powder” and the Final purity [2, 6] was 99.89%. For the same compound, the Assay [2, 6] was 107.41%, the Purity change [2, 6] was “+0.13%” and the XRPD patterns [2, 6] was “Pattern A”. For the same compound, the Final purity [2, 7] was 99.95%, the Assay [2, 7] was 110.59% and the Purity change [2, 7] was “+0.19%”. For the same compound, the XRPD patterns [2, 7] was “Pattern A”, the “Chemical stability (purity change %/1 w), 40° C./75% RH” value ([2]; 40° C./75% RH, 1 w, listed as Free form of compound of Chemical Formula 1) was 0.19% and the Final purity [2, 8] was 99.94%. The Assay [2, 8] was 105.89%, the Purity change [2, 8] was “+0.18%” and the XRPD patterns [2, 8] was “Pattern A”. For the same compound, the “Chemical stability (purity change %/1 w), 60° C.” value ([2]; 60° C., 1 w, listed as Free form of compound of Chemical Formula 1) was 0.18%, the Appearance [2, 5] was “White powder” and the Final purity [2, 9] was 99.94%. For the same compound, the Assay [2, 9] was 109.40%, the Purity change [2, 9] was “+0.18%” and the XRPD patterns [2, 9] was “Pattern A”. The “Chemical stability (purity change %/1 w), Light stability” value ([2]; listed as Free form of compound of Chemical Formula 1) was 0.13%, the Cmax ([3]; mice, oral, listed as Free) was 1015.2 ng/mL and the t½ ([3]; mice, oral, listed as free form) was 1.2 h. For the same compound, the AUClast ([3]; mice, oral, listed as free form of the compound of Chemical Formula 1, 10 mg/kg) was 3603.9 ng·h/mL, the “Pharmacokinetic test, t½” value ([3]; mice, oral, listed as Free form of compound of Chemical Formula 1) was 1 h and the Tmax ([3]; mouse, in vivo, po) was 0.5 h.
